IC50 data for 24 compounds are collected here from patent US20250236609A1, “VPS34 INHIBITORS AND METHODS OF USE THEREOF” (Deciphera Pharmaceuticals, LLC, priority 2023, published 2025).

This experiment concerns the target VPS34 (Homo sapiens (Human), UniProt Q8NEB9). Kind of experiment: Biochemical Assay for VPS34 (ADP-Glo kinase activity assay). The settings on record: 25 nM VPS34, 1 mM ATP, 1-hour incubation at 37° C.; read-out: VPS34 (Inhibition of biochemical activity of VPS34, IC50). As to the method:
Activity of VPS34 kinase was determined using an ADP-Glo kinase activity assay (Promega Corp). Assays were conducted in 384-well plates (5 μL assay volume) using 25 nM VPS34 (ThermoFisher Scientific), […] PI:3PS Lipid Kinase Substrate (Promega Corp.), and 1 mM ATP in kinase buffer. Inhibition of VPS34 was measured by adding serial diluted test compound (final assay concentration of 0.1% DMSO) followed by a 1-hour incubation at 37° C. ADP-Glo reagent was then added ([…]) followed by a 40 min incubation at rt. Kinase detection reagent was then added ([…]) and followed by a 60 min incubation at rt. Luminescence was then detected. The RLU at each compound concentration of was converted to percent inhibition using controls (i.e., reaction with no test compound and reaction with a known inhibitor) and IC50 values were calculated by fitting a four-parameter sigmoidal curve to the data using GeneData Screener software.
VPS34 Protein Sequence (Full Length with GST Tag)

For orientation: IC50 means the point on the concentration scale where inhibition reaches its midpoint.

Chain of VPS34 (Q8NEB9 other isoform, or with tags, fused parts or gaps): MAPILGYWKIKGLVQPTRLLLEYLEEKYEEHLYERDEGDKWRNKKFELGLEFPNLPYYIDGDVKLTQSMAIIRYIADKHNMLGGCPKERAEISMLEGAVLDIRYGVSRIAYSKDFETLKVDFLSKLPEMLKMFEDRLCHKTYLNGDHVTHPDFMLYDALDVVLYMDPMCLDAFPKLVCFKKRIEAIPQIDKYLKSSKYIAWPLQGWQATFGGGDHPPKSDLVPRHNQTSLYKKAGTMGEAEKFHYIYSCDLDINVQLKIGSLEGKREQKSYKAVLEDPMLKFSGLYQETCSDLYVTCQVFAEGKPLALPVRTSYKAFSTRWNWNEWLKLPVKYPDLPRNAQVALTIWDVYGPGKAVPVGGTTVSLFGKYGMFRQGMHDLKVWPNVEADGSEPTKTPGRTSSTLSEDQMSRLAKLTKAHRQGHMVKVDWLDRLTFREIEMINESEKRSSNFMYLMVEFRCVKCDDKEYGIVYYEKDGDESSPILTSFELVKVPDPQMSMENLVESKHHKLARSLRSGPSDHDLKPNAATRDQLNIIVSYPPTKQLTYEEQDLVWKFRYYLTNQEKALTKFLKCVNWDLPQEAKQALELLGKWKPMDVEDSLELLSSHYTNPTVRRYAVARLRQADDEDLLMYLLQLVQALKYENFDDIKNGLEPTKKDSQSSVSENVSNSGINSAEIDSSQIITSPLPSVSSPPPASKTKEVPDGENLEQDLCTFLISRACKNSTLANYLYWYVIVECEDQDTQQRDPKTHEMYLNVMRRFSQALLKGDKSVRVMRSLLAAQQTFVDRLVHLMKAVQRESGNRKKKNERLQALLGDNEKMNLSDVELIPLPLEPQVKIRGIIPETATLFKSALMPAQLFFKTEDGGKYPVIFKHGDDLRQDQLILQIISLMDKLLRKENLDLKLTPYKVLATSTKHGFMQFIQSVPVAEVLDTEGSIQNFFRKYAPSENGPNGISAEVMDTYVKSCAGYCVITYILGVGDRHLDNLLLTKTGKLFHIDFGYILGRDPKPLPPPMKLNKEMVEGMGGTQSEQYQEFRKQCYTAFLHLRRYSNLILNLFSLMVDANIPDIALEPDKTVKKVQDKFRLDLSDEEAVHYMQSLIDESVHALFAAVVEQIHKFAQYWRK

For the compound `Cc1cncc(Nc2cc(-c3cc(N4CCCC[C@@H]4C(F)(F)F)[nH]c(=O)c3)c(C)cn2)n1` [Example 2, (R)-5′-methyl-2′-((6-methylpyrazin-2-yl)amino)-6-(2-(trifluoromethyl)piperidin-1-yl)-[4,4′-bipyridin]-2(1H)-one], the IC50 was at most 100 nM.
The same measure for `Cc1cnc(NC(=O)CC2CN(C)C2)cc1-c1cc(N2CCCC[C@@H]2C(F)(F)F)[nH]c(=O)c1` [Example 3, (R)-N-(5-methyl-2′-oxo-6′-(2-(trifluoromethyl)piperidin-1-yl)-1′,2′-dihydro-[4,4′-bipyridin]-2-yl)-2-(1-methylazetidin-3-yl)acetamide]: 100 to 500 nM.
The same measure for `COC(=O)Nc1ncc(C)c(-c2cc(N3CCCC[C@@H]3C(F)(F)F)[nH]c(=O)c2)n1` [Example 8]: 100 to 500 nM; for `CC(=O)Nc1cc(-c2cc(-c3cccnc3C(F)(F)F)[nH]c(=O)c2)c(C)cn1` [Example 9]: 100 to 500 nM.
The same measure for `COC(=O)Nc1cc(-c2cc(-c3cccnc3C(F)(F)F)[nH]c(=O)c2)c(C2CC2)cn1` [Example 11]: 1000 to 10000 nM; for `Cc1cnccc1-c1cc(N2CCCC[C@@H]2C(F)(F)F)[nH]c(=O)c1` [Example 13]: 1000 to 10000 nM; for `Cc1cnc(NC(=O)CN(C)C)cc1-c1cc(N2CCCC[C@@H]2C(F)(F)F)[nH]c(=O)c1` [Example 19]: 1000 to 10000 nM.
For `Cc1cnc(NC(=O)CC2CN(C)CC2(F)F)cc1-c1cc(N2CCCC[C@@H]2C(F)(F)F)[nH]c(=O)c1` (stereo partly drawn) [Example 21], the IC50 was 500 to 1000 nM.
The same measure for `Cc1cnc(N)cc1-c1cc(N2CCCC[C@@H]2C(F)(F)F)[nH]c(=O)c1` [Example 23]: 1000 to 10000 nM.
Under `Cc1cnc(Nc2cnn(C)c2)cc1-c1cc(N2CCCC[C@@H]2C(F)(F)F)[nH]c(=O)c1` [Example 29] stands 500 to 1000 nM.
Under `Cc1cnc(NC(=O)OC2CC2)cc1-c1cc(N2CCCC[C@@H]2C(F)(F)F)[nH]c(=O)c1` [Example 30] stands 100 to 500 nM.
Regarding `Cc1cnc(NC(=O)c2cnn(C)c2)cc1-c1cc(N2CCCC[C@@H]2C(F)(F)F)[nH]c(=O)c1` [Example 31], the IC50 fell in the range of 500 to 1000 nM.
The same measure for `COC(=O)Nc1cc(-c2cc(N3CCN(S(=O)(=O)CCN(C)C)C[C@@H]3C(F)(F)F)[nH]c(=O)c2)c(C)cn1` [Example 32]: 100 to 500 nM; for `Cc1cnc(Nc2cnn(C)c2)cc1-c1cc(-c2cccnc2C(F)(F)F)[nH]c(=O)c1` [Example 33]: 500 to 1000 nM; for `COC(=O)Nc1cc(-c2cc(N3CCN(S(=O)(=O)CCN(C)C)C[C@@H]3C)[nH]c(=O)c2)c(C)cn1` [Example 34]: at most 100 nM.
The same measure for `CNCCC(=O)Nc1cc(-c2cc(N3CCCC[C@@H]3C(F)(F)F)[nH]c(=O)c2)c(C)cn1` [Example 35]: 500 to 1000 nM.
With `COC(=O)Nc1cc(-c2cc(N3CCOC[C@H]3C(F)(F)F)[nH]c(=O)c2)c(C)cn1` [Example 36], the IC50 fell in the range of 1000 to 10000 nM.
The same measure for `COC(=O)Nc1cc(-c2cc(N3CCOC[C@@H]3C(F)(F)F)[nH]c(=O)c2)c(C)cn1` [Example 37]: at most 100 nM; for `Cc1cnc(Nc2cn(C)nn2)cc1-c1cc(N2CCCC[C@@H]2C(F)(F)F)[nH]c(=O)c1` [Example 39]: 500 to 1000 nM; for `Cc1cnnc(Nc2cc(-c3cc(N4CCCC[C@@H]4C(F)(F)F)[nH]c(=O)c3)c(C)cn2)c1` [Example 40]: 500 to 1000 nM.
The same measure for `Cc1cnc(Nc2cnn(C)n2)cc1-c1cc(N2CCCC[C@@H]2C(F)(F)F)[nH]c(=O)c1` [Example 41]: 100 to 500 nM.
Under `Cc1cnc(Nc2ncn(C)n2)cc1-c1cc(N2CCCC[C@@H]2C(F)(F)F)[nH]c(=O)c1` [Example 42] stands at most 100 nM; under `Cc1cnc(Nc2nnn(C)n2)cc1-c1cc(N2CCCC[C@@H]2C(F)(F)F)[nH]c(=O)c1` [Example 43], 100 to 500 nM; under `Cc1ccc(Nc2cc(-c3cc(N4CCCC[C@@H]4C(F)(F)F)[nH]c(=O)c3)c(C)cn2)nn1` [Example 44], at most 100 nM.
